# Measurements as given in US12351580B2, “NLRP3 modulators” (Innate Tumor Immunity, Inc., priority 2017, dated 2025).
# Target: T1, TLR8 (Homo sapiens, UniProt Q9NR97)
# T1 construct: host or cells: HEK-Blue cells (human HEK) co-expressing TLR8 and an NF-kB/AP1-inducible SEAP reporter
# T1 sequence (Q9NR97 27-1041): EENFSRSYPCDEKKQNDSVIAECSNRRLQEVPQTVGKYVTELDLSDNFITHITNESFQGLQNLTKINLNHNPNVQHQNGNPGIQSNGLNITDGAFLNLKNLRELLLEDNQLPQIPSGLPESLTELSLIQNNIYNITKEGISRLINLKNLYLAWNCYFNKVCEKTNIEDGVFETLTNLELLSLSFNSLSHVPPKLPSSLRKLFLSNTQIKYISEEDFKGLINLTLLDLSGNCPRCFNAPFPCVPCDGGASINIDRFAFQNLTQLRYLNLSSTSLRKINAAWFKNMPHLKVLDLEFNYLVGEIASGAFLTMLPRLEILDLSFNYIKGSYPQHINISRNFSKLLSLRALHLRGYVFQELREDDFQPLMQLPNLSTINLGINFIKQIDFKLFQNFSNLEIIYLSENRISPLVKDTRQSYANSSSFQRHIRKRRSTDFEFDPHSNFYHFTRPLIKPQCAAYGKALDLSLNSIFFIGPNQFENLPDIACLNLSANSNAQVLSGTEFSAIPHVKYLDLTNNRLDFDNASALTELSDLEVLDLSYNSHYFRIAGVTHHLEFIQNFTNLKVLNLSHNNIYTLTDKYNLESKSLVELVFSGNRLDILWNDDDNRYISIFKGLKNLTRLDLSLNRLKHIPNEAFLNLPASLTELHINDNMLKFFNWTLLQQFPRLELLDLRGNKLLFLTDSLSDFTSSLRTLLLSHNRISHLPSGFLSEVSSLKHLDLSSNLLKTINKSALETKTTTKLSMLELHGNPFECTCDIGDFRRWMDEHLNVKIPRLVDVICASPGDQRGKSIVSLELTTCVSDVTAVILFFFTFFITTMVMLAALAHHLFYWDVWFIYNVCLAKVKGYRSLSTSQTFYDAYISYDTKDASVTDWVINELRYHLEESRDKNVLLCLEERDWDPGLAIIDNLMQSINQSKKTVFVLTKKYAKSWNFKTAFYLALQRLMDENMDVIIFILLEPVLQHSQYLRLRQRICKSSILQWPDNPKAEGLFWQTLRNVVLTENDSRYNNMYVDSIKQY
# Experiment: In vitro human TLR8 binding reporter assay (HEK-Blue, NF-kB/AP1-inducible SEAP)
# Assay type: cell-based
# Settings: activity range symbols
# Method in brief: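 Reporter cells are plated at 15,000 per well and rested 24 h. Next day, test compounds or DMSO are dispensed, followed by 18 h incubation at 37 °C, 5% CO2.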
row,EC50 [µM],Compound
1,> 100,CCC(=O)NCc1nc2c(N)nc3cc(-c4cc[nH]n4)ccc3c2[nH]1 [Compound 111]
2,> 100,CCN(Cc1nc2c(N)nc3cc(-c4cc[nH]n4)ccc3c2[nH]1)C(=O)c1nccs1 [Compound 114]
3,> 100,CN(Cc1nc2c(N)nc3cc(-c4cc[nH]n4)ccc3c2[nH]1)S(C)(=O)=O [Compound 115]
4,> 100,CC(c1nc2c(N)nc3cc(-n4cccn4)ccc3c2[nH]1)N1CCCC1=O (centres unmarked) [Compound 117]
5,> 100,CCN(Cc1nc2c(N)nc3cc(-c4cc[nH]n4)ccc3c2[nH]1)C(=O)C1CC1 [Compound 118]
6,> 100,"Nc1nc2cc(-c3cccs3)ccc2c2[nH]c(CN3CCCC3=O)nc12 [Compound 309, 1-[(4-amino-7-thiophen-2-yl-1H-imidazo[4,5-c]quinolin-2-yl)methyl]pyrrolidin-2-one]"
7,> 100,"N#Cc1ccccc1-c1ccc2c(c1)nc(N)c1nc(CN3CCCC3=O)[nH]c12 [Compound 315, 2-[4-amino-2-[(2-oxopyrrolidin-l-yl)methyl]-1H-imidazo[4,5-c]quinolin-7-yl]benzonitrile]"
8,> 100,"Nc1nc2cc(Br)ccc2c2[nH]c(CN3CC(c4ccccc4)CC3=O)nc12 (centres unmarked) [Compound 316, 1-[(4-amino-7-bromo-1H-imidazo[4,5-c]quinolin-2-yl)methyl]-4-phenylpyrrolidin-2-one]"
9,> 100,"COc1ncccc1-c1ccc2c(c1)nc(N)c1nc(CN3CCCC3=O)[nH]c12 [Compound 319, 1-[[4-amino-7-(2-methoxypyridin-3-yl)-1H-imidazo[4,5-c]quinolin-2-yl]methyl]pyrrolidin-2-one]"
10,> 100,"Nc1nc2cc(-c3cccnc3Cl)ccc2c2[nH]c(CN3CCCC3=O)nc12 [Compound 320, 1-[[4-amino-7-(2-chloropyridin-3-yl)-1H-imidazo[4,5-c]quinolin-2-yl]methyl]pyrrolidin-2-one]"
11,> 100,"Nc1nc2cc(-c3cnccc3Cl)ccc2c2[nH]c(CN3CCCC3=O)nc12 [Compound 321, 1-[[4-amino-7-(4-chloropyridin-3-yl)-1H-imidazo[4,5-c]quinolin-2-yl]methyl]pyrrolidin-2-one]"
12,> 100,"Nc1nc2cc(-c3ccc(C(F)(F)F)nc3)ccc2c2[nH]c(CN3CCCC3=O)nc12 [Compound 324, 1-[[4-amino-746-(trifluoromethyppyridin-3-yl]-1H-imidazo[4,5-c]quinolin-2-yl]methyl]pyrrolidin-2-one]"
13,> 100,"N#Cc1cncc(-c2ccc3c(c2)nc(N)c2nc(CN4CCCC4=O)[nH]c23)c1 [Compound 326, 5-[4-amino-2-[(2-oxopyrrolidin-l-yl)methyl]-1H-imidazo[4,5-c]quinolin-7-yl]pyridine-3-carbonitrile]"
14,> 100,"N#Cc1ccc(-c2ccc3c(c2)nc(N)c2nc(CN4CCCC4=O)[nH]c23)cn1 [Compound 327, 5-[4-amino-2-[(2-oxopyrrolidin-l-yl)methyl]-1H-imidazo[4,5-c]quinolin-7-yl]pyridine-2-carbonitrile]"
15,> 100,"Nc1nc2cc(-c3cncc(Cl)c3)ccc2c2[nH]c(CN3CCCC3=O)nc12 [Compound 328, 1-[[4-amino-7-(5-chloropyridin-3-yl)-1H-imidazo[4,5-c]quinolin-2-yl]methyl]pyrrolidin-2-one]"
16,> 100,"Nc1nc2cc(-c3ccc(F)nc3)ccc2c2[nH]c(CN3CCCC3=O)nc12 [Compound 330, 1-[[4-amino-7-(6-fluoropyridin-3-yl)-1H-imidazo[4,5-c]quinolin-2-yl]methyl]pyrrolidin-2-one]"
17,> 100,"Nc1nc2cc(-c3cncc(F)c3)ccc2c2[nH]c(CN3CCCC3=O)nc12 [Compound 331, 1-[[4-amino-7-(5-fluoropyridin-3-yl)-1H-imidazo[4,5-c]quinolin-2-yl]methyl]pyrrolidin-2-one]"
18,> 100,"Nc1nc2cc(C3CCCCCC3)ccc2c2[nH]c(CN3CCCC3=O)nc12 [Compound 332, 1-[(4-amino-7-cycloheptyl-1H-imidazo[4,5-c]quinolin-2-yl)methyl]pyrrolidin-2-one]"
19,> 100,"Nc1nc2cc(-c3cccnc3)ccc2c2[nH]c(CN3CC(c4ccccc4)CC3=O)nc12 (centres unmarked) [Compound 333, 1-[(4-amino-7-pyridin-3-yl-1H-imidazo[4,5-c]quinolin-2-yl)methyl]-4-phenylpyrrolidin-2-one]"
20,> 100,COC(=O)CCCn1c(CN2CCCC2=O)nc2c(N)nc3ccccc3c21 [Compound 335]
21,> 100,CN(C)C(=O)CCCn1c(CN2CCCC2=O)nc2c(N)nc3cc(Cl)ccc3c21 [Compound 337]
22,> 100,CN(C)C(=O)CCCn1c(CN2CCCC2=O)nc2c(N)nc3cc(-c4cccnc4)ccc3c21 [Compound 340]
23,> 100,COC(=O)CCCn1c(CN2CCCC2=O)nc2c(N)nc3cc(Br)ccc3c21 [Compound 341]
24,> 100,COC(=O)CCCn1c(CN2CCCC2=O)nc2c(N)nc3cc(-c4cccnc4)ccc3c21 [Compound 342]
25,> 100,Nc1nc2ccccc2c2[nH]c(CN3CCCCC3=O)nc12 [Compound 346]
26,> 100,COC(=O)CCCn1c(CN2CCCCC2=O)nc2c(N)nc3ccccc3c21 [Compound 347]
27,> 100,CN(C)Cc1nc2c(N)nc3cc(-c4cc[nH]n4)ccc3c2[nH]1 [Compound 348]

row,EC50 [µM],Compound
1,> 100,CCN(C)Cc1nc2c(N)nc3cc(-c4cc[nH]n4)ccc3c2[nH]1 [Compound 349]
2,> 100,Nc1nc2cc(-n3cccn3)ccc2c2[nH]c(CN3C[C@@H](c4ccccc4)CC3=O)nc12 [Compound 357]
3,> 100,Nc1nc2cc(-n3cccn3)ccc2c2[nH]c(CN3C[C@H](c4ccccc4)CC3=O)nc12 [Compound 358]
4,> 100,Nc1nc2cc(-c3cc[nH]n3)ccc2c2[nH]c(CN3C(=O)OCC3c3ccccc3)nc12 (centres unmarked) [Compound 363]
5,> 100,Nc1nc2cc(-c3cc[nH]n3)ccc2c2[nH]c(CN3CCOC3=O)nc12 [Compound 365]
6,> 100,CN1CCN(Cc2nc3c(N)nc4cc(-c5cc[nH]n5)ccc4c3[nH]2)C1=O [Compound 368]
7,> 100,CN(Cc1nc2c(N)nc3cc(-c4cc[nH]n4)ccc3c2[nH]1)C(=O)CO [Compound 370]
8,> 100,CN(Cc1nc2c(N)nc3cc(-c4cc[nH]n4)ccc3c2[nH]1)C(=O)CN [Compound 372]
9,> 100,CN(C)C(=O)N(C)Cc1nc2c(N)nc3cc(-c4cc[nH]n4)ccc3c2[nH]1 [Compound 375]
10,> 100,CN(Cc1nc2c(N)nc3cc(-c4cc[nH]n4)ccc3c2[nH]1)C(=O)c1ccccc1 [Compound 376]
11,> 100,CN(Cc1nc2c(N)nc3cc(-c4cc[nH]n4)ccc3c2[nH]1)C(=O)c1nccs1 [Compound 377]
12,> 100,CCN(C=O)Cc1nc2c(N)nc3cc(-c4cc[nH]n4)ccc3c2[nH]1 [Compound 379]
13,> 100,CCN(Cc1nc2c(N)nc3cc(-c4cc[nH]n4)ccc3c2[nH]1)C(=O)CN(C)C [Compound 383]
14,> 100,CCN(Cc1nc2c(N)nc3cc(-c4ccn(C)n4)ccc3c2[nH]1)C(=O)OC(C)(C)C [Compound 393]
15,> 100,CCN(Cc1nc2c(N)nc3cc(-c4ccsc4)ccc3c2[nH]1)C(=O)OC(C)(C)C [Compound 397]
16,> 100,CCNCc1nc2c(N)nc3cc(-n4cccn4)ccc3c2[nH]1 [Compound 398]
17,> 100,CCNCc1nc2c(N)nc3cc(-c4cccs4)ccc3c2[nH]1 [Compound 399]
18,> 100,CCNCc1nc2c(N)nc3cc(-c4ccsc4)ccc3c2[nH]1 [Compound 400]
19,> 100,CNCc1nc2c(N)nc3cc(-c4cc[nH]n4)ccc3c2[nH]1 [Compound 401]
20,> 100,CNCc1nc2c(N)nc3cc(-n4cccn4)ccc3c2[nH]1 [Compound 402]
21,> 100,COc1ccc(Cn2c(CN3CCN(C)C3=O)nc3c(N)nc4cc(-c5cc[nH]n5)ccc4c32)cc1 [Compound 403]
22,> 100,COc1ccc(Cn2c(CN3C(=O)OCC3COCc3ccccc3)nc3c(N)nc4cc(-c5cc[nH]n5)ccc4c32)cc1 (centres unmarked) [Compound 404]
23,> 100,COC(=O)N(C)Cc1nc2c(N)nc3cc(-c4cc[nH]n4)ccc3c2[nH]1 [Compound 405]
24,> 100,CCN(Cc1nc2c(N)nc3cc(-c4cc[nH]n4)ccc3c2[nH]1)C(=O)OC [Compound 406]
25,> 100,Nc1nc2cc(-c3cc[nH]n3)ccc2c2[nH]c(CN3C[C@@H](c4ccccc4)CC3=O)nc12 [Compound 407]
26,> 100,Nc1nc2cc(-c3cc[nH]n3)ccc2c2[nH]c(CN3C[C@H](c4ccccc4)CC3=O)nc12 [Compound 408]
